Laboratory results: patent publication US20210169897A1, “Concentrated Fulvestrant Compositions” (Nevakar Inc., priority 2017, published 2021)
≈ marks a conversion by molar mass, not a printed value. Where two headings read alike, the source gives them in different places.

Tests used:
[1] = Saturation solubility of fulvestrant in combinations of solvents/detergents (Table 2); type: physicochemical
Procedure: To increase solubility, various other solvents, co-solvents, and surfactants were tested. For example, in some embodiments the monohydroxylated fatty acids (e.g., free ricinoleic acid) in the solvent were substituted with other lipid solvents such as castor oil or oleic acid. […] Here, some formulations including lipid solvents (especially in combination with ethanol and/or benzyl alcohol) can solubilize fulvestrant at a concentration higher than 60 mg/ml. Yet, most of such formulations capable of solubilizing fulvestrant at a higher concentration (e.g., higher than 60 mg/ml) require higher concentration of alcohols (e.g., higher than 30%, etc.), which may cause instability of the formulation (e.g., precipitation of fulvestrant over time, etc.). Moreover, some solvents also required substantial quantities of emulsifier (e.g., Cremophor™ (hydrogenated castor oil reacted with ethylene oxide)), which is not desirable as an ingredient for injection at the tested concentrations. Indeed, it is generally preferred that the fulvestrant compositions and solutions for injection are substantially free (i.e., less than 1% w/v, or less than 0.1% w/v, or less than 0.01% w/v) from surfactants, detergents, and/or emulsifiers.

[2] = background, cited from earlier work

## C[C@]12CC[C@@H]3c4ccc(O)cc4C[C@@H](CCCCCCCCC[S+]([O-])CCCC(F)(F)C(F)(F)F)[C@H]3[C@@H]1CC[C@@H]2O (stereo partly drawn) [Fulvestrant]
[1]; 12.5% ethanol, 75% castor oil, 12.5% Cremophor RH 40 (% w/v), oil or lipid, thermodynamic from solid, No 11 (% w/v): 12.5% Ethanol, 75% Castor Oil, 12.5% Cremophor RH 40, read-out: Solubility
  solubility: 128 mg/mL
[1]; 50% castor oil, 10% Lipoid E 80, 40% ethanol (% w/v), oil or lipid, thermodynamic from solid, No 12 (% w/v): 50% Castor Oil, 10% Lipoid E 80, 40% Ethanol, read-out: Solubility
  solubility: 49.3 mg/mL
[1]; 50% castor oil, 25% ethanol, 25% Cremophor 40 (% w/v), oil or lipid, thermodynamic from solid, No 9 (% w/v): 50% Castor Oil, 25% Ethanol, 25% Cremophor 40, read-out: Solubility
  solubility: 134 mg/mL
[1]; 50% oleic acid, 25% ethanol, 25% Cremophor 40 (% w/v), oil or lipid, thermodynamic from solid, No 8 (% w/v): 50% Oleic Acid, 25% Ethanol, 25% Cremophor 40, read-out: Solubility
  solubility: 130 mg/mL
[1]; 60% castor oil, 18% BA, 13% ethanol, 9% Lipoid E 80 (% w/v), oil or lipid, thermodynamic from solid, No 14 (% w/v): 60% Castor Oil, 18% BA, 13% Ethanol, 9% Lipoid E 80, read-out: Solubility
  solubility: 63 mg/mL
[1]; 70% castor oil, 20% oleic acid, 5% BA, 5% ethanol (% w/v), oil or lipid, thermodynamic from solid, No 16 (% w/v): 70% Castor Oil, 20% Oleic Acid, 5% BA, 5% Ethanol, read-out: Solubility
  solubility: 49.9 mg/mL
[1]; 75% oleic acid, 12.5% ethanol, 12.5% Cremophor RH 40 (% w/v), oil or lipid, thermodynamic from solid, No 10 (% w/v): 75% Oleic Acid, 12.5% Ethanol, 12.5% Cremophor RH 40, read-out: Solubility
  solubility: 113 mg/mL
[1]; 75% oleic acid, 25% castor oil (% w/v), oil or lipid, thermodynamic from solid, No 5 (% w/v): 75% Oleic Acid, 25% Castor Oil, read-out: Solubility
  solubility: 15.5 mg/mL
[1]; 85% castor oil, 12% BA, 3% HP-B-CD (% w/v), oil or lipid, thermodynamic from solid, No 15 (% w/v): 85% Castor Oil, 12% BA, 3% HP-B-CD, read-out: Solubility
  solubility: 17.2 mg/mL
[1]; No 13 (% w/v): 15% Ethanol, 15% Castor Oil, 15% Benzyl Alcohol, 10% Lipoid E 80
  solubility: 45.95 mg/mL
[1]; oil or lipid, thermodynamic from solid, No 6 (% w/v): 49.5% Oleic Acid, 49.5% Castor Oil, 1% Polysorbate 20, read-out: Solubility
  solubility: 22.8 mg/mL
[1]; oil or lipid, thermodynamic from solid, No 7 (% w/v): 74.5% Oleic Acid, 24.5% Castor Oil, 1% Polysorbate 20, read-out: Solubility
  solubility: 15.7 mg/mL
[1]; oil or lipid, thermodynamic from solid, No 17 (% w/v): 10% Ethanol, 65% Castor Oil, 20% Oleic Acid, 5% Benzyl Alcohol, read-out: Solubility
  solubility: 68.8 mg/mL
[1]; oil or lipid, thermodynamic from solid, No 18 (% w/v): 5% Ethanol, 65% Castor Oil, 20% Oleic Acid, 10% Benzyl Alcohol, read-out: Solubility
  solubility: 39.5 mg/mL
[1]; oil or lipid, thermodynamic from solid, No 19 (% w/v): 22.5% Castor Oil, 67.5% Oleic Acid, 5% BA, 5% Ethanol, read-out: Solubility
  solubility: 47.3 mg/mL
[1]; oil or lipid, thermodynamic from solid, No 20 (% w/v): 45% Oleic Acid, 45% Castor Oil, 5% Ethanol, 5% Benzyl Alcohol, read-out: Solubility
  solubility: 43.7 mg/mL
[1]; oil or lipid, thermodynamic from solid, No 21 (% w/v): 5% Cremophor EL 35, 5% Ethanol, 5% Benzyl Alcohol, 85% Castor Oil, read-out: Solubility
  solubility: 24.4 mg/mL
[1]; solvent mixture, oil or lipid, thermodynamic from solid, No 4 (% w/v): 25% Oleic Acid, 75% Castor Oil, read-out: Solubility
  solubility: 18.2 mg/mL
[1]; solvent mixture, oil or lipid, thermodynamic from solid, No 3 (% w/v): 50% Castor Oil, 50% Oleic Acid, read-out: Solubility
  solubility: 20 mg/mL
[1]; solvent/detergent mixture, oil or lipid, thermodynamic from solid, No 1 (% w/v): 99% Oleic Acid, 1% Poly. 20, read-out: Solubility
  solubility: 4.08 mg/mL
[1]; solvent/detergent mixture, oil or lipid, thermodynamic from solid, No 2 (% w/v): 99% Castor Oil, 1% Poly. 20, read-out: Solubility
  solubility: 23.2 mg/mL
[1]; solvent/detergent mixture, oil or lipid, thermodynamic from solid, No 22 (% w/v): 5% HS 15, 5% Ethanol, 5% Benzyl Alcohol, 85% Castor Oil, read-out: Solubility
  solubility: 39.2 mg/mL
[1]; solvent/detergent mixture, oil or lipid, thermodynamic from solid, No 23 (% w/v): 5% Cremophor RH 40, 5% Ethanol, 5% Benzyl Alcohol, 85% Castor Oil, read-out: Solubility
  solubility: 38 mg/mL
[1]; solvent/detergent mixture, oil or lipid, thermodynamic from solid, No 24 (% w/v): 44.5% Oleic Acid, 44.5% Castor Oil, 5% Ethanol, 5% Benzyl Alcohol, 1% Poly. 20, read-out: Solubility
  solubility: 51.9 mg/mL
[1]; solvent/detergent mixture, oil or lipid, thermodynamic from solid, No 25 (% w/v): 67% Oleic Acid, 22% Castor Oil, 5% Ethanol, 5% Benzyl Alcohol, 1% Poly. 20, read-out: Solubility
  solubility: 41 mg/mL
[2]; fulvestrant in benzyl alcohol
  solubility: > 200 mg/mL
[2]; fulvestrant in ethanol
  solubility: > 200 mg/mL
physchem; Cremophor RH40, aqueous with cosolvent or surfactant or cyclodextrin
  solubility: 47.2 mg/mL (≈ 77.9 mM)
physchem; N,N-dimethylacetamide (DCAM), organic solvent or mixture
  solubility: 306 mg/mL (≈ 504 mM)
physchem; PEG 300, organic solvent or mixture
  solubility: 28.3 mg/mL (≈ 46.6 mM)
physchem; PEG 400, organic solvent or mixture
  solubility: 24.8 mg/mL (≈ 40.9 mM)
physchem; benzyl alcohol, organic solvent or mixture
  solubility: 269 mg/mL (≈ 443 mM)
physchem; benzyl benzoate, organic solvent or mixture
  solubility: 3.9 mg/mL (≈ 6.43 mM)
physchem; butyric acid, organic solvent or mixture
  solubility: 318 mg/mL (≈ 524 mM)
physchem; castor oil, oil or lipid
  solubility: 21.2 mg/mL (≈ 34.9 mM)
physchem; dimethylsulfoxide (DMSO), organic solvent or mixture
  solubility: 320 mg/mL (≈ 527 mM)
physchem; ethanol, organic solvent or mixture
  solubility: 445 mg/mL (≈ 734 mM)
physchem; heptanoic acid, organic solvent or mixture
  solubility: 154 mg/mL (≈ 255 mM)
physchem; hexanoic acid, organic solvent or mixture
  solubility: 266 mg/mL (≈ 438 mM)
physchem; octanoic acid, organic solvent or mixture
  solubility: 92.2 mg/mL (≈ 152 mM)
physchem; oleic acid, oil or lipid
  solubility: 4.8 mg/mL (≈ 7.91 mM)
physchem; olive oil, oil or lipid
  solubility: 0.4 mg/mL (≈ 0.659 mM)
physchem; propanoic acid, organic solvent or mixture
  solubility: 319 mg/mL (≈ 526 mM)
physchem; propylene glycol, organic solvent or mixture
  solubility: 39.1 mg/mL (≈ 64.4 mM)
physchem; ricinoleic acid, oil or lipid
  solubility: 26 mg/mL (≈ 42.8 mM)
